According to patent US20240059741A1, “COMPOSITION FOR PREVENTION OR TREATMENT OF SARS-COV-2 INFECTION” (priority 2020, published 2024):

Assays:
proteinaseK = target: T1, proteinaseK (Parengyodontium album, UniProt P06873); assay: Peptide remaining degree after ProtK treatment (Coomassie staining); assay type: in vitro ADME; conditions: 5 ug/ml proteinaseK, 37° C., 10, 30 and 60 minutes, FIG. 7
T1 construct: purchased Bioshop
Description: 200 μL of 50 μM stock solution was prepared with a base buffer (10 mM Tris-base, 10 mM NaCl, pH 7.4) and supplemented with 5 μM CaCl2. For untreated TO samples, 30 μL were obtained from each sample. Thereafter, 5 ug/ml of proteinaseK (Bioshop) was added to a final concentration of the remaining stock. […] Protease inactivated samples were frozen at −20° C. before further use. The frozen sample was supplemented with 8 μL of sample loading buffer (4×NuPAGE; ThermoFisher Scientific), boiled for 10 minutes (50° C.), and centrifuged at 13,500 RPM for 10 minutes before mounting a gel [12% NuPAGE Bis-Tris (ThermoFisher Scientific)] with 1×Mes running buffer. The gel was treated at 200 V for 35 minutes and stained with Coomassie Brilliant Blue dye G-250 (Thermo Fisher Scientific). ImageJ software having a background subtractive function was used as a density meter. All samples were normalized to untreated samples (TO).

SARS-CoV-2 S1 [1] = tested on: SARS-CoV-2 S1
SARS-CoV-2 S1 [2] = tested on: SARS-CoV-2 S1; remark: listed apart in the source

T1 sequence (P06873 106-384, species assumed): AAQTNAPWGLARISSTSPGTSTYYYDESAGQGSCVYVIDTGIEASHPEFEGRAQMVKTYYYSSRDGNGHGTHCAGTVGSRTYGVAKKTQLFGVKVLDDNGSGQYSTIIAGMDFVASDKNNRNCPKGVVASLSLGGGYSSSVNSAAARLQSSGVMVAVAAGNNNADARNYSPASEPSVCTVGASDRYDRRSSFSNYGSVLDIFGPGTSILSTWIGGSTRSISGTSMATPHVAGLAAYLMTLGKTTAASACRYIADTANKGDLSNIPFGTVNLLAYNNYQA

CC[C@H](C)[C@H](N)C(=O)N[C@@H](CCC(=O)O)C(=O)N[C@@H](CCC(=O)O)C(=O)N[C@@H](CCC(N)=O)C(=O)N[C@@H](C)C(=O)N[C@@H](CCCCN)C(=O)N[C@H](C(=O)N[C@@H](Cc1ccccc1)C(=O)N[C@@H](CC(C)C)C(=O)N[C@@H](CC(=O)O)C(=O)N[C@@H](CCCCN)C(=O)N[C@@H](Cc1ccccc1)C(=O)N[C@@H](CC(N)=O)C(=O)N[C@@H](Cc1c[nH]cn1)C(=O)N[C@@H](CCC(=O)O)C(=O)N[C@@H](C)C(=O)N[C@@H](CCC(=O)O)C(=O)N[C@@H](CC(=O)O)C(=O)N[C@@H](CC(C)C)C(=O)N[C@@H](Cc1ccccc1)C(=O)N[C@@H](Cc1ccc(O)cc1)C(=O)N[C@@H](CCC(N)=O)C(=O)N[C@@H](CO)C(=O)N[C@@H](CO)C(=O)N[C@@H](CC(C)C)C(=O)N[C@@H](C)C(=O)N[C@@H](CO)C(=O)NCC(=O)N1CCC[C@H]1C(=O)NCC(=O)N[C@H]1CSSC[C@@H](C(=O)N[C@@H](CCCNC(=N)N)C(=O)N[C@H](C(=O)N[C@@H](CC(C)C)C(=O)O)[C@@H](C)CC)NC(=O)[C@H](CC(=O)O)NC(=O)CNC(=O)[C@H](CCCCN)NC(=O)CNC(=O)[C@H](CC(C)C)NC1=O)[C@@H](C)O [CSNP1]
peptide remaining degree after proteinase K treatment (proteinaseK): barely remained | ka (SARS-CoV-2 S1 [1]): 603.4 M⁻¹ s⁻¹ | kd (SARS-CoV-2 S1 [2]): 0.0001878 s⁻¹
